From patent publication US20210228523A1, “MODULATORS OF SESTRIN-GATOR2 INTERACTION AND USES THEREOF” (Navitor Pharmaceuticals, Inc., priority 2017, published 2021)

Assays:
[1] = system: layer V pyramidal neurons in PFC; experiment: Dendritic spine density and morphology analysis (two-photon imaging); type: in vivo, rat; conditions: Example H; NV-5138 160 mg/kg oral single dose; 24 hr
Method: Study Design: Sixteen (16) male rats weighing between 175 and 200 g were randomized into 2 study groups (n=8), following a 5-day acclimation period. On study day 0, rats received a single dose of either NV vehicle (Veh, 0.5% methylcellulose/0.1% Tween-80) or NV-5138 (160 mg/kg), by oral gavage. On day 1, 24 hrs after dosing, rats were sacrificed, and brain slices were prepared and subjected to whole cell patch clamp recording of layer V pyramidal neurons in PFC.
Spine Density Analysis. Labeled neurons within layer V of anterior cingulate (Cg1) and prelimbic mPFC (Cg3) were imaged with a two-photon Ti:sapphire laser scanning system for analysis of spine density and morphology (810 nanometers; Mai Tai, Spectra Physics, Mountain View, Calif.) coupled to direct detection Radiance 2000 BioRad laser scanner (Zeiss Micromaging, Thornwood, N.Y.) mounted on a Olympus BX50WI microscope, using a 60× (0.9 numerical aperture) water-immersion objective. This includes the total number of spines on proximal and distal tufts of layer V neurons, as well as the spine head diameter, and indication of spine maturation. The length of apical tuft branch segments is determined within the 3D matrix of each Z-stack by using Neurolucida 10.2 (MicroBrightField). Spine density and spine head diameter analysis are done with the Autospine module of Neurolucida Explorer (version 10.2) on the raw image stacks (2-5 optical sections, 1 μm apart). Spine density and segmentation (beading) were sampled in three zones: tips of tuft branches as they approach the pial membrane, intermediate dendrites approximately midway between the pial membrane and bifurcation of apical trunk, and proximal tuft dendrites just distal to the bifurcation. Results were expressed in terms of total dendritic length, spine density, and segmentation density. Results were expressed in terms of spine density per 10 μm.

[2] = system: Male Sprague Dawley rats; experiment: Sucrose Preference Test (SPT) in non-stressed and chronic unpredictable stress rats; type: in vivo, rat; conditions: Example E, NV-5138 160 mg/kg oral single dose, 24 hrs after dosing
Method: Behavioral Analysis Using the Sucrose Preference Test (SPT): Rats were habituated to a palatable sucrose 1% sucrose solution for 48 hrs to avoid neophobia. Rats were treated with NV-5138 or Veh at the end of day 0 and the SPT was performed 24 hrs post-administration on day 1. For the SPT, rats were deprived of water for 6 hrs and exposed for 60 min to two bottles with equal volumes of 1% sucrose or water. The ratio of the volume of sucrose water consumed to total water consumed during the 1 hr test was defined as sucrose preference (e.g., a ratio of 1 would indicate the rat consumed only 1% sucrose, while a ratio of 0.5 would indicate that the rat drank equal amounts of 1% sucrose and water).
Chronic Unpredictable Stress (CUS) Conditions: Rats were exposed to a variable sequence of 12 unpredictable stressors, preventing habituation as described (Li, N. et al., Biol Psychiatry 69(8): 754-61 (2011)). […]
Study Design: Fifty-six (56) male rats weighing between 175 and 200 g were randomized into 4 study groups (n=14/group), following a 5-day acclimation period. […] Crude synaptosomes were prepared from the PFC and the synaptic proteins, GluR1 and PSD95 were quantitated by WB. […]

Which “mushroom spine subtype density” value [1] does the source give for `CC(C)(C[C@H](N)C(=O)O)C(F)F` [NV-5138] here?
The value was “specific increase”.

And the “overall spine density in layer V pyramidal neuron dendrites” value [1]?
Its value is “significant increase”.

What about the “thin spine subtype density” value [1] of the same compound?
Its value is “specific increase”.

And the “SPT, mean ratio of 1% sucrose to water consumption” value ([2]; CUS rats (Group 4))?
The value was 0.79.

What about the “SPT, mean ratio of 1% sucrose to water consumption” value ([2]; non-stressed (NS) rats) of the same compound?
The value was 0.76.
